The values that follow come from patent US7582645B2, “Pyrimidine derivatives for treatment of hyperproliferative disorders” (Bayer Pharmaceuticals Corporation, priority 2003, dated 2009).

In general, IC50 refers to the point on the concentration scale where inhibition reaches its midpoint. Low values mean inhibition by little substance, high ones a need for much substance.

Counter-ions that a name gives are not always drawn.

The first assay has as its system HCT116 cells. Briefly: HCT116 cytotoxic activity assay (Alamar Blue, 72 h). To be noted: Homo sapiens, HCT-116, 72 h compound exposure, greater than 500 nM but less than or equal to 2 μM. It counts as cell-based. The method, then: Representative compounds of this invention were tested for cytotoxicity using the above-described assay procedure with the following results: […]
(In general: The colour change of resazurin is a common sign of viable cells or microbes.)
Consider `CN(C)CCNc1cc(Oc2ccc(Nc3cc(-c4ccccc4)nc(N)n3)cc2)ccn1` [Example 138, N4*-{4-[(2-{[2-(dimethylamino)ethyl]amino}pyridin-4-yl)oxy]phenyl}-6-phenylpyrimidine-2,4-diamine], for which the 50% inhibitory concentration (IC50) lay in the range of 500 to 2000 nM. Take `Nc1nc(Nc2ccc(Oc3ccnc(O)c3)cc2)cc(-c2ccccc2)n1` [Example 65, 4-{4-[(2-amino-6-phenylpyrimidin-4-yl)amino]phenoxy}pyridin-2-ol]: the IC50 is 500 to 2000 nM. Compound `CSc1ccc(-c2cc(Nc3ccc(Oc4ccnc(C#N)c4)cc3)nc(N)n2)cc1` [Example 231, 4-[4-({2-amino-6-[4-(methylthio)phenyl]pyrimidin-4-yl}amino)phenoxy]pyridine-2-carbonitrile] displayed a half-maximal inhibitory concentration (IC50) of 500 to 2000 nM. Still for that read-out and setting: then `Nc1nc(Nc2ccc(Oc3ccnc(C(=O)NC4CN5CCC4CC5)c3)cc2)cc(-c2ccccc2)n1` (centres unmarked) [Example 79, 4-{4-[(2-amino-6-phenylpyrimidin-4-yl)amino]phenoxy}-N-1-azabicyclo[2.2.2]oct-3-ylpyridine-2-carboxamide trifluoroacetate], with 500 to 2000 nM. The same measure, in the same setting: then `CN1CCN(c2cc(Oc3cccc(Nc4cc(-c5ccccc5)nc(N)n4)c3)ccn2)CC1` [Example 130, N4*-(3-{[2-(4-methylpiperazin-1-yl)pyridin-4-yl]oxy}phenyl)-6-phenylpyrimidine-2,4-diamine], with 500 to 2000 nM. With `CCN(CC)CCCNc1cc(Oc2ccc(Nc3cc(-c4ccccc4)nc(N)n3)cc2)ccn1` [Example 141, N4*-{4-[(2-{[3-(diethylamino)propyl]amino}pyridin-4-yl)oxy]phenyl}-6-phenylpyrimidine-2,4-diamine], the half-maximal inhibitory concentration (IC50) lay within 500 to 2000 nM. The compound `CNC(=O)c1cc(Oc2ccc(Nc3cc(-c4ccccc4)nc(N)n3)cc2)ccn1` [Example 70, 4-{4-[(2-amino-6-phenylpyrimidin-4-yl)amino]phenoxy}-N-methylpyridine-2-carboxamide] returned an IC50 of 500 to 2000 nM.

Compound `COc1ccc(-c2cc(Nc3ccc(Oc4ccnc(C#N)c4)cc3)nc(N)n2)cc1N` [Example 172, 4-(4-{[2-amino-6-(3-amino-4-methoxyphenyl)pyrimidin-4-yl]amino}phenoxy)pyridine-2-carbonitrile] displayed a 50% inhibitory concentration (IC50) of 500 to 2000 nM. The same measure, in the same setting: then `N#Cc1cc(Oc2ccc(Nc3cc(-c4cccc(CO)c4)nc(N)n3)cc2)ccn1` [Example 248, 4-[4-({2-amino-6-[3-(hydroxymethyl)phenyl]pyrimidin-4-yl}amino)phenoxy]pyridine-2-carbonitrile], with 500 to 2000 nM. Still for that read-out and setting: then `Nc1nc(Nc2ccc(Oc3ccnc(CNC(=O)c4ccc(F)cc4)c3)cc2)cc(-c2ccccc2)n1` [Example 41, N-[(4-{4-[(2-amino-6-phenylpyrimidin-4-yl)amino]phenoxy}pyridin-2-yl)methyl]-4-fluorobenzamide], with 500 to 2000 nM; and `Nc1nc(Nc2ccc(Oc3ccnc(C(F)(F)F)c3)cc2)cc(-c2ccccc2N)n1` [Example 194, 6-(2-aminophenyl)-N4*-(4-{[2-(trifluoromethyl)pyridin-4-yl]oxy}phenyl)pyrimidine-2,4-diamine], with 500 to 2000 nM; and `Cc1cc(Oc2ccc(Nc3cc(-c4ccc(Oc5ccccc5)cc4)nc(N)n3)cc2)ccn1` [Example 304, N4*-{4-[(2-methylpyridin-4-yl)oxy]phenyl}-6-(4-phenoxyphenyl) pyrimidine-2,4-diamine], with 500 to 2000 nM.

The same assay, now with this note: Homo sapiens, HCT-116, 72 h compound exposure, greater than 2 μM.
For `Cc1cc(Oc2ccc(Nc3cc(-c4cccc(C(F)(F)F)c4)nc(N)n3)cc2)ccn1` [Example 314, N4*-{4-[(2-methylpyridin-4-yl)oxy]phenyl}-6-[3-(trifluoromethyl)phenyl] pyrimidine-2,4-diamine], the IC50 is over 2000 nM. Regarding `N#Cc1cc(Oc2ccc(Nc3cc(-c4cccc(C(F)(F)F)c4)nc(N)n3)cc2)ccn1` [Example 244, 4-[4-({2-amino-6-[3-(trifluoromethyl)phenyl]pyrimidin-4-yl}amino)phenoxy]pyridine-2-carbonitrile], the IC50 is over 2000 nM. In the case of `COC[C@@H]1CCCN1c1cc(Oc2cccc(Nc3cc(-c4ccccc4)nc(N)n3)c2)ccn1` [Example 122, N4*-[3-({2-[2-(methoxymethyl)pyrrolidin-1-yl]pyridin-4-yl}oxy)phenyl]-6-phenylpyrimidine-2,4-diamine], the IC50 is over 2000 nM.

Still in this assay, the particulars now being: Homo sapiens, HCT-116, 72 h compound exposure, less than or equal to 500 nM.
In turn, `Cc1cc(Oc2ccc(Nc3cc(-c4ccc(F)cc4)nc(N)n3)cc2)ccn1` [Example 282, 6-(4-fluorophenyl)-N4*-{4-[(2-methylpyridin-4-yl)oxy]phenyl} pyrimidine-2,4-diamine] came in with a half-inhibitory concentration (IC50) of at most 500 nM. As for `Nc1nc(Nc2ccc(Oc3ccnc(C(F)(F)F)c3)cc2)cc(-c2ccc(NC(=O)[C@@H](N)CO)cc2)n1` [Example 50, 2-amino-N-(4-{2-amino-6-[4-(2-trifluoromethylpyridin-4-yloxy)phenylamino]pyrimidin-4-yl}phenyl)-3-hydroxypropionamide], the 50% inhibitory concentration (IC50) is at most 500 nM. Regarding `Nc1cccc(-c2cc(Nc3ccc(Oc4ccnc(Cl)c4)cc3)nc(N)n2)c1` [Example 118, 6-(3-aminophenyl)-N4*-{4-[(2-chloropyridin-4-yl)oxy]phenyl}pyrimidine-2,4-diamine], the IC50 is at most 500 nM. Regarding `NC(=O)c1cc(Oc2ccc(Nc3cc(-c4ccccc4OC(F)(F)F)nc(N)n3)cc2)ccn1` [Example 278, 4-[4-({2-amino-6-[2-(trifluoromethoxy)phenyl]pyrimidin-4-yl}amino)phenoxy]pyridine-2-carboxamide], the IC50 is at most 500 nM.

`N#Cc1cc(Oc2ccc(Nc3cc(-c4ccc(N)nc4)nc(N)n3)cc2)ccn1` [Example 183, 4-(4-{[2-amino-6-(6-aminopyridin-3-yl)pyrimidin-4-yl]amino}phenoxy)pyridine-2-carbonitrile] had an IC50 of at most 500 nM. `Cc1ccccc1-c1cc(Nc2ccc(Oc3ccnc(C(N)=O)c3)cc2)nc(N)n1` [Example 263, 4-(4-{[2-amino-6-(2-methylphenyl)pyrimidin-4-yl]amino}phenoxy) pyridine-2-carboxamide] returned an IC50 of at most 500 nM. On the same count and under the same terms, then `COc1cccc(-c2cc(Nc3ccc(Oc4ccnc(C)c4)cc3)nc(N)n2)c1` [Example 316, 6-(3-methoxyphenyl)-N4*-{4-[(2-methylpyridin-4-yl)oxy]phenyl} pyrimidine-2,4-diamine], with at most 500 nM; and `NC(=O)c1cc(Oc2ccc(Nc3cc(-c4ccc(F)cc4F)nc(N)n3)cc2)ccn1` [Example 264, 4-(4-{[2-amino-6-(2,4-difluorophenyl)pyrimidin-4-yl]amino}phenoxy)pyridine-2-carboxamide], with at most 500 nM.

Consider `Nc1nc(Nc2ccc(Oc3ccnc(C(F)(F)F)c3)cc2)cc(-c2cccc(F)c2F)n1` [Example 159, 6-(2,3-difluorophenyl)-N4*-(4-{[2-(trifluoromethyl)pyridin-4-yl]oxy}phenyl)pyrimidine-2,4-diamine], for which the half-inhibitory concentration (IC50) is at most 500 nM. In turn, `CN(C)c1ccc(-c2cc(Nc3ccc(Oc4ccnc(C(F)(F)F)c4)cc3)nc(N)n2)cc1` [Example 199, 6-[4-(dimethylamino)phenyl]-N4*-(4-{[2-(trifluoromethyl)pyridin-4-yl]oxy}phenyl)pyrimidine-2,4-diamine] yielded an IC50 of at most 500 nM. `CCc1ccccc1-c1cc(Nc2ccc(Oc3ccnc(C(F)(F)F)c3)cc2)nc(N)n1` [Example 156, 6-(2-ethylphenyl)-N4*-(4-{[2-(trifluoromethyl)pyridin-4-yl]oxy}phenyl) pyrimidine-2,4-diamine] displayed a half-maximal inhibitory concentration (IC50) of at most 500 nM. `COc1cc(-c2cc(Nc3ccc(Oc4ccnc(C(F)(F)F)c4)cc3)nc(N)n2)ccc1OC(=O)CN` [Example 150, 4-{2-amino-6-[(4-{[2-(trifluoromethyl)pyridin-4-yl]oxy}phenyl)amino]pyrimidin-4-yl}-2-methoxyphenyl glycinate hydrochloride] showed an IC50 of at most 500 nM. On the same count and under the same terms, then `COc1ccc(OC)c(-c2cc(Nc3ccc(Oc4ccnc(C(F)(F)F)c4)cc3)nc(N)n2)c1` [Example 215, 6-(2,5-dimethoxyphenyl)-N4*-(4-{[2-(trifluoromethyl)pyridin-4-yl]oxy}phenyl)pyrimidine-2,4-diamine], with at most 500 nM; and `COC[C@H]1CCCN1c1cc(Oc2ccc(Nc3cc(-c4ccccc4)nc(N)n3)cc2)ccn1` [Example 133, N4*-[4-({2-[(2R)-2-(methoxymethyl)pyrrolidin-1-yl]pyridin-4-yl}oxy)phenyl]-6-phenylpyrimidine-2,4-diamine], with at most 500 nM; and `CCc1cc(Oc2ccc(Nc3cc(-c4ccccc4)nc(N)n3)cc2)ccn1` [Example 1, N^4-{4-[(2-ethylpyridin-4-yl)oxy]phenyl}-6-phenyl-pyrimidine-2,4-diamine], with at most 500 nM. Same read-out and setting: then `COc1ccc(-c2cc(Nc3ccc(Oc4ccnc(C(F)(F)F)c4)cc3)nc(N)n2)cn1` [Example 191, 6-(6-methoxypyridin-3-yl)-N4*-(4-{[2-(trifluoromethyl)pyridin-4-yl]oxy}phenyl)pyrimidine-2,4-diamine], with at most 500 nM. The same measure, in the same setting: then `Cc1cc(Oc2ccc(Nc3cc(-c4ccccc4)nc(N)n3)cc2)ccn1` [Example 2, N^4-{4-[(2-methylpyridin-4-yl)oxy]phenyl}-6-phenylpyrimidine-2,4-diamine], with at most 500 nM.

Turning to `Cc1ccccc1-c1cc(Nc2cccc(Oc3ccnc(C(N)=O)c3)c2)nc(N)n1` [Example 290, 4-(3-{[2-amino-6-(2-methylphenyl)pyrimidin-4-yl]amino}phenoxy) pyridine-2-carboxamide], the IC50 was at most 500 nM. Still for that read-out and setting: then `Nc1nc(Nc2ccc(Oc3ccnc(C(=O)NCCO)c3)cc2)cc(-c2ccccc2)n1` [Example 45, 4-[4-(2-Amino-6-phenylpyrimidin-4-ylamino)phenoxy]pyridine-2-carboxylic acid (2-hydroxyethyl)amide], with at most 500 nM; and `Cc1cc(Oc2ccc(Nc3cc(-c4cccc(F)c4)nc(N)n3)cc2)ccn1` [Example 315, 6-(3-fluorophenyl)-N4*-{4-[(2-methylpyridin-4-yl)oxy]phenyl} pyrimidine-2,4-diamine], with at most 500 nM.
